# Tested on: BEAS-2B
# Assay: Comprehensive gene expression analysis with Whole Human Genome DNA microarray after EP treatment
# Format: cell-based
# Experimental: Cells of the established normal human airway epithelial cell line BEAS-2B were used in the experiment. These cells were expansively cultured in 10% FBS RPMI-1640, and seeded at a density of 1×10^5/cm^2 on a 24-well plate. After 24 hours 0.1% FBS RPMI-1640 was substituted, and EP was administered to a final concentration of 0 or 1 mM (n=4). After 24 hours, the cells were used as the DNA microarray samples. RNA was extracted using a QIAGEN RNeasy Mini Kit. The DNA microarray test was performed using a Whole Human Genome DNA microarray 4×44K (Agilent), and the necessary labeling reagents and the like for the DNA microarray test were all from Agilent. The DNA microarray test data were analyzed statistically with GeneSpring (Agilent) dedicated analysis software, and gene function analysis (Gene Ontology (GO) analysis) was performed based on differential expression. The purpose of the GO analysis is to determine stochastically the degree to which gene sets with statistically significant differential expression correspond to known functional classification gene sets. […] The p-value is calculated according to the following formula.
# [1] = probe A_23_P92499, 1 mM EP, 24 h
# [2] = probe A_23_P94754, NM_005118, EP vs control
# [3] = probe A_23_P94754, 1 mM EP, 24 h
# [4] = probe A_23_P104798, NM_001562, EP vs control
# [5] = probe A_23_P104881, 1 mM EP, 24 h
# [6] = probe A_23_P105138, NM_001752, EP vs control
# [7] = probe A_23_P105138, 1 mM EP, 24 h
# [8] = probe A_23_P105803, 1 mM EP, 24 h
# [9] = probe A_23_P110052, 1 mM EP, 24 h
# [10] = probe A_23_P110151, 1 mM EP, 24 h
# [11] = probe A_23_P114662, NM_001889, EP vs control
# [12] = probe A_23_P115286, 1 mM EP, 24 h
# [13] = probe A_23_P118061, 1 mM EP, 24 h
# [14] = probe A_23_P118174, 1 mM EP, 24 h
# [15] = probe A_23_P122052, NM_001008397, EP vs control
# [16] = probe A_23_P122216, NM_002317, EP vs control
# [17] = probe A_23_P122216, 1 mM EP, 24 h
# [18] = probe A_23_P122775, NM_032730, EP vs control
# [19] = probe A_23_P126844, 1 mM EP, 24 h
# [20] = probe A_23_P127322, NM_018055, EP vs control
# [21] = probe A_23_P127406, NM_018039, EP vs control
# [22] = probe A_23_P128050, 1 mM EP, 24 h
# [23] = probe A_23_P128215, 1 mM EP, 24 h
# [24] = probe A_23_P128230, 1 mM EP, 24 h
# [25] = probe A_23_P129313, NM_001159508, EP vs control
# [26] = probe A_23_P131588, NM_014482, EP vs control
# [27] = probe A_23_P132388, NM_005138, EP vs control
# [28] = probe A_23_P134925, 1 mM EP, 24 h
# [29] = probe A_23_P135024, 1 mM EP, 24 h
# [30] = probe A_23_P135248, NM_006664, EP vs control
# [31] = probe A_23_P136116, NM_001004320, EP vs control
# [32] = probe A_23_P136493, NM_013962, EP vs control
# [33] = probe A_23_P138635, 1 mM EP, 24 h
# [34] = probe A_23_P143242, 1 mM EP, 24 h
# [35] = probe A_23_P145357, 1 mM EP, 24 h
# [36] = probe A_23_P146644, 1 mM EP, 24 h
compound,measurement,setting,value
"NCCOP(=O)(O)O [EP, Ethanolamine phosphate]",CIDEC expression log2 [ratio],"probe A_23_P92025, 1 mM EP, 24 h",−0.754
same,TLR2 expression R*: Ratio to control,[1],0.632 times
same,TLR2 expression log2 [ratio],[1],−0.662
same,"TNFSF15 gene expression, R* ratio to control",[2],0.399 times
same,"TNFSF15 gene expression, log2 [ratio]",[2],−1.327
same,TNFSF15 expression R*: Ratio to control,[3],0.399 times
same,TNFSF15 expression log2 [ratio],[3],−1.327
same,"IL18 gene expression, R* ratio to control",[4],0.641 times
same,"IL18 gene expression, log2 [ratio]",[4],−0.641
same,ROBO4 expression R*: Ratio to control,[5],1.785 times
same,ROBO4 expression log2 [ratio],[5],0.836
same,"CAT gene expression, R* ratio to control",[6],1.505 times
same,"CAT gene expression, log2 [ratio]",[6],0.589
same,CAT expression R*: Ratio to control,[7],1.505 times
same,CAT expression log2 [ratio],[7],0.589
same,FGF9 expression R*: Ratio to control,[8],1.606 times
same,FGF9 expression log2 [ratio],[8],0.684
same,FOXL2 expression R*: Ratio to control,[9],0.352 times
same,FOXL2 expression log2 [ratio],[9],−1.504
same,ARHGAP24 expression R*: Ratio to control,[10],1.670 times
same,ARHGAP24 expression log2 [ratio],[10],0.740
same,"CRYZ gene expression, R* ratio to control",[11],1.632 times
same,"CRYZ gene expression, log2 [ratio]",[11],0.707
same,BCL10 expression R*: Ratio to control,[12],0.542 times
same,BCL10 expression log2 [ratio],[12],−0.883
same,CKLF expression R*: Ratio to control,[13],1.501 times
same,CKLF expression log2 [ratio],[13],0.586
same,PLK1 expression R*: Ratio to control,[14],2.447 times
same,PLK1 expression log2 [ratio],[14],1.291
same,"GPX8 gene expression, R* ratio to control",[15],1.413 times
same,"GPX8 gene expression, log2 [ratio]",[15],0.499
same,"LOX gene expression, R* ratio to control",[16],1.637 times
same,"LOX gene expression, log2 [ratio]",[16],0.711
same,LOX expression R*: Ratio to control,[17],1.637 times
same,LOX expression log2 [ratio],[17],0.711
same,"RTN4IP1 gene expression, R* ratio to control",[18],1.436 times
same,"RTN4IP1 gene expression, log2 [ratio]",[18],0.522
same,TNFRSF25 expression R*: Ratio to control,[19],0.532 times
same,TNFRSF25 expression log2 [ratio],[19],−0.909
same,"NODAL gene expression, R* ratio to control",[20],0.450 times
same,"NODAL gene expression, log2 [ratio]",[20],−1.154
same,"KDM4D gene expression, R* ratio to control",[21],1.448 times
same,"KDM4D gene expression, log2 [ratio]",[21],0.534
same,BCL2L14 expression R*: Ratio to control,[22],0.594 times
same,BCL2L14 expression log2 [ratio],[22],−0.751
same,SOCS2 expression R*: Ratio to control,[23],1.720 times
same,SOCS2 expression log2 [ratio],[23],0.783
same,NR4A1 expression R: Ratio to control,[24],0.302 times
same,NR4A1 expression log2 [ratio],[24],−1.727
same,"IVD gene expression, R* ratio to control",[25],1.473 times
same,"IVD gene expression, log2 [ratio]",[25],0.559
same,"BMP10 gene expression, R* ratio to control",[26],0.625 times
same,"BMP10 gene expression, log2 [ratio]",[26],−0.678
same,"SCO2 gene expression, R* ratio to control",[27],1.495 times
same,"SCO2 gene expression, log2 [ratio]",[27],0.580
same,BNIP3L expression R*: Ratio to control,[28],0.633 times
same,BNIP3L expression log2 [ratio],[28],−0.661
same,ARHGEF6 expression R*: Ratio to control,[29],0.270 times
same,ARHGEF6 expression log2 [ratio],[29],−1.889
same,"CCL27 gene expression, R* ratio to control",[30],0.556 times
same,"CCL27 gene expression, log2 [ratio]",[30],−0.846
same,"TMEM195 gene expression, R* ratio to control",[31],1.962 times
same,"TMEM195 gene expression, log2 [ratio]",[31],0.972
same,"NRG1 gene expression, R* ratio to control",[32],0.646 times
same,"NRG1 gene expression, log2 [ratio]",[32],−0.830
same,BNIP3 expression R*: Ratio to control,[33],0.374 times
same,BNIP3 expression log2 [ratio],[33],−1.418
same,CEBPB expression R*: Ratio to control,[34],0.617 times
same,CEBPB expression log2 [ratio],[34],−0.697
same,BAK1 expression R*: Ratio to control,[35],0.402 times
same,BAK1 expression log2 [ratio],[35],−1.313
same,ANXA2 expression R*: Ratio to control,[36],1.673 times
same,ANXA2 expression log2 [ratio],[36],0.742

# — patent US20150164762A1, “USE OF ETHANOLAMINE PHOSPHATE” (priority 2012, published 2015)
